# Test results taken from article PMC6576746, “Rational discovery of dual-indication multi-target PDE/Kinase inhibitor for precision anti-cancer therapy using structural systems pharmacology” (PLoS Computational Biology, 2019).
# Assays:
# Assay in all cases: cells
# Parameters in all cases: species or system panel of human cancer cell lines; Eurofins OncoPanel proliferation; nuclei count by high-content fluorescence imaging, 10-point dose response
# SW837 = conditions: Homo sapiens, SW837, 72 h, cell count, 3 days
# Method: (§1) OncoPanel cancer cell proliferation assay was performed by Eurofins Panlabs, Inc. (Missouri, USA). Cancer cells were grown in RPMI 1640, 10% FBS, 2 mM L-alanyl-L-glutamine, 1 mM Na pyruvate, or a special medium. Cells were seeded into 384-well plates and incubated in a humidified atmosphere of 5% CO2 at 37°C. Compounds were added the day following cell seeding. At the same time, a time zero untreated cell plate was generated. After a 3-day incubation period, cells were fixed and stained to allow fluorescence imaging of nuclei. Levosimendan was serially diluted in half-log steps from 100 μM and assayed over 10 concentrations with a maximum assay concentration of 0.1% DMSO. Automated fluorescence microscopy was carried out using a Molecular Devices ImageXpress Micro XL high-content imager, and images were collected with a 4X objective. 16-bit TIFF images were acquired and analyzed with MetaXpress 5.1.0.41 software. Cell count EC50 is the test concentration at the curve inflection point (parameter C), or half the effective response. IC50 is the test compound concentration at 50% of the maximum possible response. GI50 is the concentration needed to reduce the observed growth by half (midway between the relative cell count at the curve maximum and at the time of compound addition). Activity area is an estimate of the integrated area above the response curve. Activity area values range from 0–10, where a value of zero indicates no inhibition of proliferation at all concentrations, and a value of 10 indicates complete inhibition of proliferation at all concentrations.
# Thp1 = conditions: Homo sapiens, THP-1, 72 h, cell count, 3 days
# Method: as §1
# NALM-6 = conditions: Homo sapiens, NALM-6, 72 h, cell count, 3 days
# Method: as §1
# HT-29 = conditions: Homo sapiens, HT-29, 72 h, cell count, 3 days
# Method: as §1
# 5637 = conditions: 72 h, cell count, 3 days
# Method: as §1
# CaOV3 = conditions: Homo sapiens, Caov-3, 72 h, cell count, 3 days
# Method: as §1
# A204 = conditions: Homo sapiens, A204, 72 h, cell count, 3 days
# Method: as §1
# 769-P = conditions: Homo sapiens, 769-P, 72 h, cell count, 3 days
# Method: as §1
# CEM-C1 = conditions: CEM/C1, 72 h, cell count, 3 days
# Method: as §1
# MV-4-11 = conditions: Homo sapiens, MV4-11, 72 h, cell count, 3 days
# Method: as §1
# M059J = conditions: Homo sapiens, M059J, 72 h, cell count, 3 days
# Method: as §1
# CHP-212 = conditions: Homo sapiens, CHP-212, 72 h, cell count, 3 days
# Method: as §1
# NTERA-2 cl.D1 = conditions: Homo sapiens, NTERA-2-cl-D1, 72 h, cell count, 3 days
# Method: as §1
# MEG01 = conditions: Homo sapiens, MEG-01, 72 h, cell count, 3 days
# Method: as §1
# [1] = 50% of maximum possible response
smiles,measurement,setting,value
C[C@@H]1CC(=O)NN=C1c1ccc(NN=C(C#N)C#N)cc1 [levosimendan],IC50,SW837; [1],37.5 µM
same,GI50,SW837; corrected for time zero,31.8 µM
same,EC50,SW837; curve inflection point,33.3 µM
same,IC50,Thp1; [1],35.5 µM
same,GI50,Thp1; corrected for time zero,23.1 µM
same,EC50,Thp1; curve inflection point,35.5 µM
same,IC50,NALM-6; [1],30.8 µM
same,GI50,NALM-6; corrected for time zero,23.4 µM
same,EC50,NALM-6; curve inflection point,30.8 µM
same,IC50,HT-29; [1],> 100 µM
same,GI50,HT-29; corrected for time zero,82.7 µM
same,EC50,HT-29; curve inflection point,> 100 µM
same,IC50,5637; [1],64.7 µM
same,GI50,5637; corrected for time zero,53.5 µM
same,EC50,5637; curve inflection point,64.7 µM
same,IC50,CaOV3; [1],37.4 µM
same,GI50,CaOV3; corrected for time zero,21.4 µM
same,EC50,CaOV3; curve inflection point,37.4 µM
same,IC50,A204; [1],9.19 µM
same,GI50,A204; corrected for time zero,7.57 µM
same,EC50,A204; curve inflection point,7.85 µM
same,IC50,769-P; [1],40 µM
same,GI50,769-P; corrected for time zero,28.6 µM
same,EC50,769-P; curve inflection point,94.2 µM
same,IC50,CEM-C1; [1],22.5 µM
same,GI50,CEM-C1; corrected for time zero,18.8 µM
same,EC50,CEM-C1; curve inflection point,22.5 µM
same,IC50,MV-4-11; [1],13.1 µM
same,GI50,MV-4-11; corrected for time zero,9.2 µM
same,EC50,MV-4-11; curve inflection point,12.6 µM
same,IC50,M059J; [1],51.5 µM
same,GI50,M059J; corrected for time zero,38.5 µM
same,EC50,M059J; curve inflection point,48.8 µM
same,IC50,CHP-212; [1],84.9 µM
same,GI50,CHP-212; corrected for time zero,49.1 µM
same,EC50,CHP-212; curve inflection point,84.9 µM
same,IC50,NTERA-2 cl.D1; [1],11.8 µM
same,GI50,NTERA-2 cl.D1; corrected for time zero,9.76 µM
same,EC50,NTERA-2 cl.D1; curve inflection point,11.6 µM
same,IC50,MEG01; [1],83.2 µM
same,GI50,MEG01; corrected for time zero,58.5 µM
same,EC50,MEG01; curve inflection point,83.2 µM
